# Assays:
# [1] = Blood plasma levels from Compound A implants in rats; type: in vivo; conditions: one implant per rat, 17.5 mg Compound A
# Method: Ten coextruded implants were prepared having a core comprising 50% of Compound A (as a salt) and 50% ethylene vinyl acetate, and a shell comprising 3% Compound A and 97% ethylene vinyl acetate. The implants measured 26 mm length×1.5 mm diameter, weighed 48 mg, and contained 17.5 mg Compound A. After extrusion, the implants were washed, dried, packaged and sterilized by E-beam irradiation at 25 KGy.
# The implants were implanted into rats (one implant per rat), and blood plasma levels were measured. After an initial peak from drug on the implant surface, the rat plasma levels were sustained within a range of about 1.4 to about 4 ng/ml for about 2,000 hours (about 83 days).
# [2] = tested on: mice challenged with 5′-guanidinonaltrindole (5′GNTI); experiment: Mouse itch model, 5′GNTI challenge, mouse prototype EVA implants; type: in vivo; conditions: male C57BL/6 mice, 1 prototype implant (10 mg Compound A) per mouse
# Method: Compound A implants were formulated in ethylene-vinyl acetate (EVA) matrices for testing in male C57BL/6 mice. Because of the small size of the mouse, test implant prototypes (25 mm×1.5 mm) containing a limited quantity of the drug (10 mg) were used for this mouse model study. […] After extrusion, the implant prototypes were washed, dried, packaged and sterilized by E-beam irradiation at 25 KGy.
# Following the implantation of one Compound A implant in each mouse, the treated mice with drug-containing implants (N=5) and untreated control mice with placebo implants or sham surgery (N=7) were challenged with 5′-guanidinonaltrindole (5′GNTI) at Days 1, 14 and 28 post-implantation. Scratch events were monitored.
# [3] = Mouse plasma concentration from EVA mouse prototype implants versus subcutaneous acute injection; type: in vivo; conditions: male C57BL/6 mice, one prototype implant per mouse, compared with acute 0.3 mg/kg subcutaneous injection
# Method: Male C57BL/6 mice were sampled for pharmacokinetic analysis following subcutaneous acute injection with Compound A in saline (0.3 mg/kg drug was administered, using an injection volume of 10 mL/kg), or following implantation with one Compound A implant in each mouse. The implants used were as described in Example 2.
# [4] = tested on: mice challenged with the pruritogen 5′-GNTI; experiment: Scratching events in mice after 5′-GNTI challenge over an 84-day period, Compound A-containing implants; type: in vivo, mouse; conditions: male C57BL/6 mice, one implant (26×2.6 mm, 60 mg Compound A), 5′GNTI 0.1 mg/kg s.c. on Days 28, 56 and 84, initial 30 minutes of observation
# Method: Male C57BL/6 mice (8-14 wks old, N=7-8) were each implanted with one Compound A-containing implant (26×2.6 mm, 50% loading, 60 mg Compound A/implant). Controls were untreated mice or mice implanted with placebo (EVA-only) implants (N=5-7). On Days 28, 56 and 84 post-implantation, the mice were transferred to behavioral rooms during the light cycle, at least 2 hours prior to challenge with the pruritogen 5′-GNTI to minimize stress effects on grooming and movement. 5′GNTI (0.1 mg/kg) was subcutaneously injected just caudal to the head/neck, and the mice were immediately placed in an observation chamber (25×25 cm) with plexiglas walls and light-colored melamine flooring and video recorded from above for up to 90 minutes after pruritogen challenge, and then removed and placed back into their home cages in the housing colony. The video recordings were subsequently analyzed for the quantity of scratching behavior, classified as either a forepaw scratching bout behind the ears, or hind paw scratching bout of the flank/back of the animal, over the initial 30 minutes of observation.
# (D28C=control mice at day 28, D28A=mice with Compound A implants at day 28, D56C=control mice at day 56, D56A=mice with Compound A implants at day 56, D84C=control mice at day 84, D84A=mice with Compound A implants at day 84).
smiles,measurement,setting,value
CCCC[C@@H](NC(=O)[C@@H](Cc1ccccc1)NC(=O)[C@H](N)Cc1ccccc1)C(=O)N[C@H](CCCCN(C)C)C(=O)NCc1ccncc1 [Compound A],time for which plasma levels were sustained,[1],"2000 hours and about 2,000 hours"
same,scratching behavior at day 28 post-implantation,[2]; 5′GNTI challenge,returning to control levels
same,sustained itch suppression post-implantation,"[2]; 5′GNTI challenge at Days 1, 14 and 28",up to 14 days
same,plasma concentrations of Compound A over the first 14 days post-implantation,[3],well above the levels estimated for therapeutic anti-pruritus activity
same,scratch events versus control mice,[4],reduced scratch events

# From US20240226226A1, “KAPPA-OPIOID RECEPTOR AGONIST IMPLANTS FOR TREATMENT OF PRURITUS” (Titan Pharmaceuticals, Inc., priority 2021, published 2024)
